The source of these data is patent US9850256B2, “Antibacterial basic biaromatic derivatives with aminoalkoxy substitution” (priority 2014, dated 2017).

What all share (test): Bacterial growth minimal inhibitory concentration (microdilution, cation-adjusted Mueller-Hinton Broth)
In one test the test system is E. coli ATCC25922. In kind it is cell-based. Conditions: Escherichia coli, ATCC25922; quinolone-sensitive strain. In a few lines: (§1)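 Broth microdilution in cation-adjusted Mueller-Hinton Broth per CLSI M7-A7; MICs in mg/L. S. aureus A798 is methicillin- and quinolone-resistant, K. pneumoniae T6474 penicillin-, cephalosporin- and quinolone-resistant; E. coli ATCC25922 and P. aeruginosa ATCC 27853 are quinolone-sensitive.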

A further test has as its system S. aureus A798. The test is classed as cell-based, Staphylococcus aureus. Conditions: Staphylococcus aureus, A798; multiply-resistant strain (methicillin- and quinolone-resistant). In a few lines:
as §1

In the next test the test system is P. aeruginosa ATCC 27853. In kind it is cell-based, Pseudomonas aeruginosa. Conditions: Pseudomonas aeruginosa, ATCC27853; quinolone-sensitive strain. The gist of the method: as §1
The test system of a further test is K. pneumoniae T6474. In kind it is cell-based, Klebsiella pneumoniae. The following applies: Klebsiella pneumoniae, T6474; multiply-resistant strain (penicillin-, cephalosporin- and quinolone-resistant). In a few lines:
as §1

The structures appear in SMILES notation. Values after ≈ are worked out from the molar mass of the structure shown.

Consider `NCCNCCOc1cccc(-c2cccc(CNCC[C@H]3CN(c4ccc5c(n4)NC(=O)CO5)C(=O)O3)c2)n1` [Example $156, 6-{(S)-5-[2-(3-{6-[2-(2-amino-ethylamino)-ethoxy]-pyridin-2-yl}-benzylamino)-ethyl]-2-oxo-oxazolidin-3-yl}-4H-pyrido[3,2-b][1,4]oxazin-3-one], for which the MIC turned out to be 1 µg/mL (≈ 1.83 µM) in the test with E. coli ATCC25922, 1 µg/mL (≈ 1.83 µM) in the test on S. aureus A798, 0.5 µg/mL (≈ 0.913 µM) against P. aeruginosa ATCC 27853 and 2 µg/mL (≈ 3.65 µM) in the test with K. pneumoniae T6474.

As for `NCCOc1ccnc(-c2ccnc(CNCC[C@H]3CN(c4ccc5c(n4)NC(=O)CO5)C(=O)O3)c2)c1` [Example $157, 6-[(S)-5-(2-{[4-(2-amino-ethoxy)-[2,4′]bipyridinyl-2′-ylmethyl]-amino}-ethyl)-2-oxo-oxazolidin-3-yl]-4H-pyrido[3,2-b][1,4]oxazin-3-one], the minimum inhibitory concentration (MIC) in the test on E. coli ATCC25922 is 4 µg/mL (≈ 7.91 µM); against S. aureus A798, 8 µg/mL (≈ 15.8 µM); in the test on P. aeruginosa ATCC 27853 it was 1 µg/mL (≈ 1.98 µM); against K. pneumoniae T6474 it was 16 µg/mL (≈ 31.6 µM).

As to `NCCOc1cncc(-c2ccnc(CNCC[C@H]3CN(c4ccc5c(n4)NC(=O)CO5)C(=O)O3)c2)n1` [Example $158, 6-{(S)-5-[2-({4-[6-(2-amino-ethoxy)-pyrazin-2-yl]-pyridin-2-ylmethyl}-amino)-ethyl]-2-oxo-oxazolidin-3-yl}-4H-pyrido[3,2-b][1,4]oxazin-3-one], the minimal inhibitory concentration (MIC) with E. coli ATCC25922 turned out to be 8 µg/mL (≈ 15.8 µM); in the test with S. aureus A798, 4 µg/mL (≈ 7.9 µM); in the test on P. aeruginosa ATCC 27853 it was 2 µg/mL (≈ 3.95 µM); in the test on K. pneumoniae T6474 it was 16 µg/mL (≈ 31.6 µM).

For `NCCOc1cncc(-c2ccnc(CNCC[C@H]3CN(c4ccc5c(n4)NC(=O)CO5)C(=O)O3)c2)c1` [Example $159, 6-[(S)-5-(2-{[5-(2-amino-ethoxy)-[3,4′]bipyridinyl-2′-ylmethyl]-amino}-ethyl)-2-oxo-oxazolidin-3-yl]-4H-pyrido[3,2-b][1,4]oxazin-3-one], the MIC in the test on E. coli ATCC25922 amounted to 16 µg/mL (≈ 31.6 µM); with S. aureus A798, 8 µg/mL (≈ 15.8 µM); in the test with P. aeruginosa ATCC 27853, 4 µg/mL (≈ 7.91 µM); against K. pneumoniae T6474 it was 8 µg/mL (≈ 15.8 µM).

On to `NCCOc1nccc(-c2cccc(CNCC[C@H]3CN(c4ccc5c(n4)NC(=O)CO5)C(=O)O3)c2)n1` [Example $160, 6-[(S)-5-(2-{3-[2-(2-amino-ethoxy)-pyrimidin-4-yl]-benzylamino}-ethyl)-2-oxo-oxazolidin-3-yl]-4H-pyrido[3,2-b][1,4]oxazin-3-one], for which the MIC in the test on E. coli ATCC25922 was determined as 2 µg/mL (≈ 3.96 µM); against S. aureus A798 it was 4 µg/mL (≈ 7.91 µM); in the test on P. aeruginosa ATCC 27853 it was 1 µg/mL (≈ 1.98 µM); against K. pneumoniae T6474, 8 µg/mL (≈ 15.8 µM).

As for `COc1cc(OCCN)cc(-c2cccc(CNCC[C@H]3CN(c4ccc5c(n4)NC(=O)CO5)C(=O)O3)c2)n1` [Example $161, 6-[(S)-5-(2-{3-[4-(2-amino-ethoxy)-6-methoxy-pyridin-2-yl]-benzylamino}-ethyl)-2-oxo-oxazolidin-3-yl]-4H-pyrido[3,2-b][1,4]oxazin-3-one], the minimal inhibitory concentration (MIC) with E. coli ATCC25922 was found to be 0.5 µg/mL (≈ 0.935 µM); against S. aureus A798 it was 0.5 µg/mL (≈ 0.935 µM); with P. aeruginosa ATCC 27853, 1 µg/mL (≈ 1.87 µM); in the test on K. pneumoniae T6474 it was 1 µg/mL (≈ 1.87 µM).

Take `COc1cc(OCCN)cc(-c2ccnc(CNCC[C@H]3CN(c4ccc5c(n4)NC(=O)CO5)C(=O)O3)c2)n1` [Example $162, 6-[(S)-5-(2-{[4-(2-amino-ethoxy)-6-methoxy-[2,4′]bipyridinyl-2′-ylmethyl]-amino}-ethyl)-2-oxo-oxazolidin-3-yl]-4H-pyrido[3,2-b][1,4]oxazin-3-one]: the minimal inhibitory concentration (MIC) against E. coli ATCC25922, with S. aureus A798, in the test with P. aeruginosa ATCC 27853 and against K. pneumoniae T6474 was 1 µg/mL (≈ 1.87 µM) each time.

With `CNCCOc1cccc(-c2cccc(CNCC[C@H]3CN(c4ccc5c(n4)NC(=O)CO5)C(=O)O3)c2)n1` [Example $163, 6-[(S)-5-(2-{3-[6-(2-methylamino-ethoxy)-pyridin-2-yl]-benzylamino}-ethyl)-2-oxo-oxazolidin-3-yl]-4H-pyrido[3,2-b][1,4]oxazin-3-one], the MIC came out at 0.5 µg/mL (≈ 0.964 µM) with E. coli ATCC25922, 0.5 µg/mL (≈ 0.964 µM) in the test with S. aureus A798, 0.5 µg/mL (≈ 0.964 µM) against P. aeruginosa ATCC 27853 and 2 µg/mL (≈ 3.86 µM) in the test on K. pneumoniae T6474.

For `CNCCOc1cncc(-c2cccc(CNCC[C@H]3CN(c4ccc5c(n4)NC(=O)CO5)C(=O)O3)c2)n1` [Example $164, 6-[(S)-5-(2-{3-[6-(2-methylamino-ethoxy)-pyrazin-2-yl]-benzylamino}-ethyl)-2-oxo-oxazolidin-3-yl]-4H-pyrido[3,2-b][1,4]oxazin-3-one], the minimal inhibitory concentration (MIC) stood at 1 µg/mL (≈ 1.92 µM) against E. coli ATCC25922, 0.5 µg/mL (≈ 0.962 µM) in the test with S. aureus A798, 0.5 µg/mL (≈ 0.962 µM) with P. aeruginosa ATCC 27853 and 1 µg/mL (≈ 1.92 µM) in the test with K. pneumoniae T6474.

Turning to `NCCOc1cccc(-c2ccnc(CNCC[C@H]3CN(c4ccc5c(n4)NC(=O)CO5)C(=O)O3)n2)n1` [Example $165, 6-{(S)-5-[2-({4-[6-(2-amino-ethoxy)-pyridin-2-yl]-pyrimidin-2-ylmethyl}-amino)-ethyl]-2-oxo-oxazolidin-3-yl}-4H-pyrido[3,2-b][1,4]oxazin-3-one], the MIC in the test with E. coli ATCC25922 was found to be 4 µg/mL (≈ 7.9 µM); in the test on S. aureus A798, 8 µg/mL (≈ 15.8 µM); in the test with P. aeruginosa ATCC 27853, 2 µg/mL (≈ 3.95 µM); in the test on K. pneumoniae T6474, 4 µg/mL (≈ 7.9 µM).

On to `CN1CC[C@@H](Oc2cnnc(-c3cccc(CNCC[C@H]4CN(c5ccc6c(n5)NC(=O)CO6)C(=O)O4)c3)c2)C1` [Example $166, 6-[(S)-5-(2-{3-[5-((R)-1-methyl-pyrrolidin-3-yloxy)-pyridazin-3-yl]-benzylamino}-ethyl)-2-oxo-oxazolidin-3-yl]-4H-pyrido[3,2-b][1,4]oxazin-3-one], for which the minimum inhibitory concentration (MIC) was 2 µg/mL (≈ 3.67 µM) against E. coli ATCC25922, 4 µg/mL (≈ 7.33 µM) against S. aureus A798, 4 µg/mL (≈ 7.33 µM) in the test with P. aeruginosa ATCC 27853 and 4 µg/mL (≈ 7.33 µM) in the test on K. pneumoniae T6474.

Regarding `CN1CC[C@H](Oc2cccc(-c3cccc(CNCC[C@H]4CN(c5ccc6c(c5)NC(=O)CS6)C(=O)O4)c3)n2)C1` [Example $167, 6-[(S)-5-(2-{3-[6-((S)-1-methyl-pyrrolidin-3-yloxy)-pyridin-2-yl]-benzylamino}-ethyl)-2-oxo-oxazolidin-3-yl]-4H-benzo[1,4]thiazin-3-one], the minimal inhibitory concentration (MIC) against E. coli ATCC25922 came out at 1 µg/mL (≈ 1.79 µM); against S. aureus A798, 0.25 µg/mL (≈ 0.447 µM); in the test on P. aeruginosa ATCC 27853, 1 µg/mL (≈ 1.79 µM); in the test on K. pneumoniae T6474, 1 µg/mL (≈ 1.79 µM).

In the case of `CN1CC[C@@H](Oc2cccc(-c3cccc(CNCC[C@H]4CN(c5ccc6c(c5)NC(=O)CS6)C(=O)O4)c3)n2)C1` [Example $168, 6-[(S)-5-(2-{3-[6-((R)-1-methyl-pyrrolidin-3-yloxy)-pyridin-2-yl]-benzylamino}-ethyl)-2-oxo-oxazolidin-3-yl]-4H-benzo[1,4]thiazin-3-one], the MIC is 2 µg/mL (≈ 3.57 µM) in the test on E. coli ATCC25922, 1 µg/mL (≈ 1.79 µM) in the test with S. aureus A798, 2 µg/mL (≈ 3.57 µM) against P. aeruginosa ATCC 27853 and 2 µg/mL (≈ 3.57 µM) in the test with K. pneumoniae T6474.

For `CN1CC[C@@H](Oc2cccc(-c3cccc(CNCC[C@@H]4CN(c5ccc6c(c5)NC(=O)CS6)C(=O)O4)c3)n2)C1` [Example $169, 6-[(R)-5-(2-{3-[6-((R)-1-methyl-pyrrolidin-3-yloxy)-pyridin-2-yl]-benzylamino}-ethyl)-2-oxo-oxazolidin-3-yl]-4H-benzo[1,4]thiazin-3-one], the MIC in the test on E. coli ATCC25922 was 1 µg/mL (≈ 1.79 µM); against S. aureus A798 it was 0.25 µg/mL (≈ 0.447 µM); against P. aeruginosa ATCC 27853, 2 µg/mL (≈ 3.57 µM); against K. pneumoniae T6474, 2 µg/mL (≈ 3.57 µM).

`COc1cc(O[C@H]2CCN(C)C2)cc(-c2cccc(CNCC[C@H]3CN(c4ccc5c(n4)NC(=O)CO5)C(=O)O3)c2)n1` [Example $170, 6-[(S)-5-(2-{3-[6-methoxy-4-((S)-1-methyl-pyrrolidin-3-yloxy)-pyridin-2-yl]-benzylamino}-ethyl)-2-oxo-oxazolidin-3-yl]-4H-pyrido[3,2-b][1,4]oxazin-3-one]: the minimum inhibitory concentration (MIC) in the test on E. coli ATCC25922 was determined as 2 µg/mL (≈ 3.48 µM); against S. aureus A798, 0.25 µg/mL (≈ 0.435 µM); against P. aeruginosa ATCC 27853 it was 2 µg/mL (≈ 3.48 µM); in the test on K. pneumoniae T6474, 4 µg/mL (≈ 6.96 µM).

For the molecule `CN1CCC[C@@H]1COc1cccc(-c2cccc(CNCC[C@H]3CN(c4ccc5c(n4)NC(=O)CO5)C(=O)O3)c2)n1` [Example $171, 6-[(S)-5-(2-{3-[6-((R)-1-methyl-pyrrolidin-2-ylmethoxy)-pyridin-2-yl]-benzylamino}-ethyl)-2-oxo-oxazolidin-3-yl]-4H-pyrido[3,2-b][1,4]oxazin-3-one], the minimum inhibitory concentration (MIC) stood at 1 µg/mL (≈ 1.79 µM) with E. coli ATCC25922, 0.25 µg/mL (≈ 0.448 µM) against S. aureus A798, 1 µg/mL (≈ 1.79 µM) in the test with P. aeruginosa ATCC 27853 and 1 µg/mL (≈ 1.79 µM) with K. pneumoniae T6474.

For `CN1CC(Oc2cnnc(-c3cccc(CNCC[C@H]4CN(c5ccc6c(n5)NC(=O)CO6)C(=O)O4)c3)c2)C1` [Example $174, 6-[(S)-5-(2-{3-[5-(1-methyl-azetidin-3-yloxy)-pyridazin-3-yl]-benzylamino}-ethyl)-2-oxo-oxazolidin-3-yl]-4H-pyrido[3,2-b][1,4]oxazin-3-one], the MIC against E. coli ATCC25922 turned out to be 1 µg/mL (≈ 1.88 µM); with S. aureus A798, 2 µg/mL (≈ 3.76 µM); in the test with P. aeruginosa ATCC 27853, 2 µg/mL (≈ 3.76 µM); in the test with K. pneumoniae T6474, 2 µg/mL (≈ 3.76 µM).

For `C[C@H]1C[C@H](Oc2cccc(-c3cccc(CNCC[C@H]4CN(c5ccc6c(n5)NC(=O)CO6)C(=O)O4)c3)n2)CN1C` [Example $175, 6-[(S)-5-(2-{3-[6-((3S,5S)-1,5-dimethyl-pyrrolidin-3-yloxy)-pyridin-2-yl]-benzylamino}-ethyl)-2-oxo-oxazolidin-3-yl]-4H-pyrido[3,2-b][1,4]oxazin-3-one], the minimal inhibitory concentration (MIC) against E. coli ATCC25922 came to 2 µg/mL (≈ 3.58 µM); against S. aureus A798, 0.25 µg/mL (≈ 0.448 µM); in the test on P. aeruginosa ATCC 27853, 4 µg/mL (≈ 7.16 µM); in the test on K. pneumoniae T6474 it was 4 µg/mL (≈ 7.16 µM).

For `CN1CC(Oc2cncc(-c3cccc(CNCC[C@H]4CN(c5ccc6c(n5)NC(=O)CO6)C(=O)O4)n3)n2)C1` [Example $179, 6-{(S)-5-[2-({6-[6-(1-methyl-azetidin-3-yloxy)-pyrazin-2-yl]-pyridin-2-ylmethyl}-amino)-ethyl]-2-oxo-oxazolidin-3-yl}-4H-pyrido[3,2-b][1,4]oxazin-3-one], the minimum inhibitory concentration (MIC) with E. coli ATCC25922 was 1 µg/mL (≈ 1.88 µM); against S. aureus A798 it was 0.5 µg/mL (≈ 0.939 µM); with P. aeruginosa ATCC 27853, 2 µg/mL (≈ 3.76 µM); in the test with K. pneumoniae T6474, 1 µg/mL (≈ 1.88 µM).
